Experiments:
SNB-75 = SNB-75 (CNS Cancer), 48 hours, SRB; for CC50: read-out: LC50
SNB-19 = SNB-19 (CNS Cancer), 48 hours, SRB; for CC50: read-out: LC50
OVCAR-5 = OVCAR-5 (Ovarian Cancer), 48 hours, SRB; for CC50: read-out: LC50
HCC-2998 = HCC-2998 (Colon Cancer), 48 hours, SRB; for CC50: read-out: LC50
MALME-3M = MALME-3M (Melanoma), 48 hours, SRB
IGROV1 = IGROV1 (Ovarian Cancer), 48 hours, SRB; for CC50: read-out: LC50
OVCAR-4 = OVCAR-4 (Ovarian Cancer), 48 hours, SRB; for CC50: read-out: LC50
LOX IMVI = LOX IMVI (Melanoma), 48 hours, SRB
A498 = A498 (Renal Cancer), 48 hours, SRB; for CC50: read-out: LC50
U251 = U251 (CNS Cancer), 48 hours, SRB; for CC50: read-out: LC50
KM12 = KM12 (Colon Cancer), 48 hours, SRB; for CC50: read-out: LC50
SK-OV-3 = SK-OV-3 (Ovarian Cancer), 48 hours, SRB; for CC50: read-out: LC50
MCF7 = MCF7 (Breast Cancer), 48 hours, SRB; for CC50: read-out: LC50
MDA-MB-231/ATCC = MDA-MB-231/ATCC (Breast Cancer), 48 hours, SRB; for CC50: read-out: LC50
HCT-116 = HCT-116 (Colon Cancer), 48 hours, SRB; for CC50: read-out: LC50
HOP-62 = HOP-62 (Non-Small Cell Lung Cancer), 48 hours, SRB; for CC50: read-out: LC50
SK-MEL-5 = SK-MEL-5 (Melanoma), 48 hours, SRB; for CC50: read-out: LC50
UO-31 = UO-31 (Renal Cancer), 48 hours, SRB; for CC50: read-out: LC50
K-562 = K-562 (Leukemia), 48 hours, SRB
NCI-H460 = NCI-H460 (Non-Small Cell Lung Cancer), 48 hours, SRB; for CC50: read-out: LC50
UACC62 = UACC62 (Melanoma), 48 hours, SRB; for CC50: read-out: LC50
NCI-H522 = NCI-H522 (Non-Small Cell Lung Cancer), 48 hours, SRB; for CC50: read-out: LC50
SK-MEL-28 = SK-MEL-28 (Melanoma), 48 hours, SRB
M14 = M14 (Melanoma), 48 hours, SRB; for CC50: read-out: LC50
COLO 205 = COLO 205 (Colon Cancer), 48 hours, SRB; for CC50: read-out: LC50
BT-549 = BT-549 (Breast Cancer), 48 hours, SRB; for CC50: read-out: LC50

Compound `CN(C)c1cccc2c(S(=O)(=O)NCCCCCCCCCCOc3ccc4c(c3)[N+]([O-])=C3C4=C[C@@]45NC(=O)C6(CCCN6C4=O)CC5C3(C)C)cccc12` (stereo partly shown) [Dansyl Analogue] has a GI50 (SNB-75) of 273 nM, a TGI (SNB-75) of 930 nM and a CC50 (SNB-75) of 3430 nM. For the same compound, the GI50 (SNB-19) was 359 nM, the TGI (SNB-19) was 1440 nM and the CC50 (SNB-19) was 4100 nM. The GI50 (OVCAR-5) was 1460 nM, the TGI (OVCAR-5) was 2960 nM and the CC50 (OVCAR-5) was 5970 nM. It also gave a GI50 (HCC-2998) of 946 nM, a TGI (HCC-2998) of 2320 nM and a CC50 (HCC-2998) of 5490 nM. It also gave a GI50 (MALME-3M) of 426 nM, a TGI (MALME-3M) of 2110 nM and a GI50 (IGROV1) of 272 nM. For the same compound, the TGI (IGROV1) was 695 nM, the CC50 (IGROV1) was 3390 nM and the GI50 (OVCAR-4) was 348 nM. It also gave a TGI (OVCAR-4) of 7420 nM, a CC50 (OVCAR-4) of 32200 nM and a GI50 (LOX IMVI) of 166 nM. For the same compound, the TGI (LOX IMVI) was 310 nM, the CC50 (LOX IMVI; read-out: LC50) was 579 nM and the GI50 (A498) was 250 nM. For the same compound, the TGI (A498) was 1010 nM, the CC50 (A498) was 4400 nM and the GI50 (U251) was 175 nM. For the same compound, the TGI (U251) was 334 nM, the CC50 (U251) was 640 nM and the GI50 (KM12) was 1250 nM. For the same compound, the TGI (KM12) was 2880 nM, the CC50 (KM12) was 6600 nM and the GI50 (SK-OV-3) was 1650 nM. For the same compound, the TGI (SK-OV-3) was 4130 nM, the CC50 (SK-OV-3) was 10800 nM and the GI50 (MCF7) was 232 nM. The TGI (MCF7) was 724 nM, the CC50 (MCF7) was 2610 nM and the GI50 (MDA-MB-231/ATCC) was 242 nM. It also gave a TGI (MDA-MB-231/ATCC) of 584 nM, a CC50 (MDA-MB-231/ATCC) of 40500 nM and a GI50 (HCT-116) of 349 nM. It also gave a TGI (HCT-116) of 1150 nM, a CC50 (HCT-116) of 5980 nM and a GI50 (HOP-62) of 2380 nM. It also gave a TGI (HOP-62) of 4640 nM, a CC50 (HOP-62) of 9020 nM and a GI50 (SK-MEL-5) of 373 nM. It also gave a TGI (SK-MEL-5) of 1470 nM, a CC50 (SK-MEL-5) of 3840 nM and a GI50 (UO-31) of 480 nM. The TGI (UO-31) was 2080 nM, the CC50 (UO-31) was 6480 nM and the TGI (K-562) was 64400 nM. For the same compound, the GI50 (NCI-H460) was 700 nM, the TGI (NCI-H460) was 1990 nM and the CC50 (NCI-H460) was 4640 nM. For the same compound, the GI50 (UACC62) was 565 nM, the TGI (UACC62) was 1880 nM and the CC50 (UACC62) was 4880 nM. The GI50 (NCI-H522) was 260 nM, the TGI (NCI-H522) was 857 nM and the CC50 (NCI-H522) was 8890 nM. For the same compound, the GI50 (SK-MEL-28) was 282 nM, the TGI (SK-MEL-28) was 678 nM and the GI50 (M14) was 423 nM. It also gave a TGI (M14) of 2030 nM, a CC50 (M14) of 13600 nM and a GI50 (COLO 205) of 328 nM. For the same compound, the TGI (COLO 205) was 1140 nM, the CC50 (COLO 205) was 3860 nM and the GI50 (BT-549) was 515 nM. It also gave a TGI (BT-549) of 6730 nM and a CC50 (BT-549) greater than 100000 nM.
Compound `CC1(C)C=Cc2c(ccc3c4c(n(O)c23)C(C)(C)C2CC35CCCN3C(=O)C2(NC5=O)C4SCC(NC(=O)CCC(N)C(=O)O)C(=O)NCC(=O)O)O1` (stereo not shown) [Glutathione Adduct] has a GI50 (SNB-75) of 896 nM, a TGI (SNB-75) of 2450 nM and a CC50 (SNB-75) of 8470 nM. The GI50 (SNB-19) was 1430 nM, the TGI (SNB-19) was 6240 nM and the CC50 (SNB-19) was 18700 nM. For the same compound, the GI50 (OVCAR-5) was 971 nM, the TGI (OVCAR-5) was 3030 nM and the CC50 (OVCAR-5) was 12000 nM. For the same compound, the GI50 (HCC-2998) was 759 nM, the TGI (HCC-2998) was 1510 nM and the CC50 (HCC-2998) was 3020 nM. The GI50 (MALME-3M) was 419 nM, the TGI (MALME-3M) was 3100 nM and the CC50 (MALME-3M; read-out: LC50) was 25100 nM. It also gave a GI50 (IGROV1) of 1060 nM, a TGI (IGROV1) of 2810 nM and a CC50 (IGROV1) of 11900 nM. It also gave a GI50 (OVCAR-4) of 742 nM, a TGI (OVCAR-4) of 2490 nM and a CC50 (OVCAR-4) of 10100 nM. The GI50 (LOX IMVI) was 806 nM, the TGI (LOX IMVI) was 1560 nM and the GI50 (A498) was 804 nM. For the same compound, the TGI (A498) was 1830 nM, the CC50 (A498) was 4160 nM and the GI50 (U251) was 819 nM. For the same compound, the TGI (U251) was 1970 nM, the CC50 (U251) was 4760 nM and the GI50 (KM12) was 979 nM. For the same compound, the TGI (KM12) was 1910 nM, the CC50 (KM12) was 3730 nM and the GI50 (SK-OV-3) was 1300 nM. It also gave a TGI (SK-OV-3) of 5060 nM, a CC50 (SK-OV-3) of 16100 nM and a GI50 (MCF7) of 840 nM. The TGI (MCF7) was 3180 nM, the CC50 (MCF7) was 33600 nM and the GI50 (MDA-MB-231/ATCC) was 931 nM. For the same compound, the TGI (MDA-MB-231/ATCC) was 3680 nM, the CC50 (MDA-MB-231/ATCC) was 14700 nM and the GI50 (HCT-116) was 871 nM. The TGI (HCT-116) was 1760 nM, the CC50 (HCT-116) was 3550 nM and the GI50 (HOP-62) was 6670 nM. It also gave a TGI (HOP-62) of 1380 nM, a CC50 (HOP-62) of 28600 nM and a GI50 (SK-MEL-5) of 826 nM. The TGI (SK-MEL-5) was 1860 nM, the CC50 (SK-MEL-5) was 4170 nM and the GI50 (UO-31) was 779 nM. For the same compound, the TGI (UO-31) was 4070 nM, the CC50 (UO-31) was 15000 nM and the GI50 (K-562) was 1010 nM. The TGI (K-562) was 4660 nM, the CC50 (K-562; read-out: LC50) was greater than 50000 nM and the GI50 (NCI-H460) was 1110 nM. The TGI (NCI-H460) was 2410 nM, the CC50 (NCI-H460) was 23200 nM and the GI50 (UACC62) was 649 nM. It also gave a TGI (UACC62) of 1720 nM, a CC50 (UACC62) of 4560 nM and a GI50 (NCI-H522) of 727 nM. The TGI (NCI-H522) was 1950 nM, the CC50 (NCI-H522) was 6290 nM and the GI50 (SK-MEL-28) was 985 nM. The TGI (SK-MEL-28) was 1950 nM, the CC50 (SK-MEL-28; read-out: LC50) was 3870 nM and the GI50 (M14) was 996 nM. It also gave a TGI (M14) of 2630 nM, a CC50 (M14) of 11200 nM and a GI50 (COLO 205) of 649 nM. The TGI (COLO 205) was 15100 nM, the CC50 (COLO 205) was 3510 nM and the GI50 (BT-549) was 923 nM. For the same compound, the TGI (BT-549) was 2700 nM and the CC50 (BT-549) was 10500 nM.

— patent US20110105515A1, “TARGETING THE ONCOPROTEIN NUCLEOPHOSMIN” (President and Fellows of Harvard College, priority 2007, published 2011)
